From PubChem BioAssay AID179 (DTP/NCI, 2004)
Active and inactive are the calls of the source.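 Rule for the calls: active = compounds giving half or more protection of infected cells from virus-caused growth loss, again on retest; inactive = the rest.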

Test system: CEM cells HIV-1 protection, formazan growth assay
Experiment: NCI AIDS Antiviral Assay
Conditions: for IC50: measured here: growth of uninfected CEM cells
In short: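 Category rules: moderately active means at least 50% protection on retest, and confirmed active means 100% protection reproducibly. The underlying data came from a formazan growth assay in HIV-1-infected CEM cells.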

## CCCCCCCC(=O)O[C@H]1[C@H]2[C@@H](CC1(C)C)C(=O)[C@]13O[C@H]1C(=O)[C@]1(CO1)[C@]23C
  EC50: > 162 µM
  IC50: 0.55 µM

## CCOC(=O)c1c(SC(=O)c2ccc(OC)cc2)n(-c2ccccc2)c(=S)n(-c2ccccc2)c1=O
  EC50: > 200 µM
  IC50: 28.2 µM

## CC(=O)Nc1ccc(S(=O)(=O)N/N=C/CN2C(=O)c3ccccc3C2=O)cc1
  EC50: 26.9 µM
  IC50: 89.1 µM

## O=C1/C(=C/c2ccc(Cl)cc2)NC(=S)N1CN1CCOCC1
  EC50: > 200 µM
  IC50: 32.4 µM

## CCCCCCC(c1cc(Cl)c(OC)c(C(=O)OC)c1)c1cc(Cl)c(OC)c(C(=O)OC)c1
  EC50: > 36.3 µM
  IC50: > 36.3 µM

## N#Cc1ccc(C(O)C(F)(F)c2nc3ccccc3o2)cc1 (stereo unspecified)
  EC50: > 200 µM
  IC50: > 200 µM

## N#Cc1c(NC(=S)Nc2ccccc2)sc2c1CCCC2
  EC50: > 200 µM
  IC50: > 200 µM

## CON[N+]([O-])=NC(C)C
  EC50: 195 µM
  IC50: > 200 µM

## Cc1ccc(S(=O)(=O)Nn2c(O)c(C#N)c(-c3ccc(N(C)C)cc3)c(C#N)c2=O)cc1
  EC50: > 200 µM
  IC50: > 200 µM

## CC1C(c2ccc3c(c2)OCO3)CC(Cl)CC12C=C1OCOC1=CC2=O (stereo unspecified)
  EC50: > 69.2 µM
  IC50: 47.9 µM

## Nc1nc(SCC(=O)c2ccccc2)nc2nc3c(c(-c4ccccc4)c12)CCCC3
  EC50: > 100 µM
  IC50: 66.1 µM

## c1ccc2oc(-c3ccc(-c4nc5ccccc5o4)c4c3CC4)nc2c1
  EC50: > 50.1 µM
  IC50: > 50.1 µM

## CCOc1ccc(N=Nc2ccc(N)cc2N)cc1
  EC50: > 200 µM
  IC50: 107 µM

## O=C(O)/C(=C\c1ccccc1Cl)S(=O)(=O)c1ccccc1
  outcome: inactive

## O=[N+]([O-])c1cc2c(cc1O)[nH]c1cccc([N+](=O)[O-])c12
  EC50: > 13.8 µM
  IC50: > 13.8 µM

## CCN(CC)CCOc1ccc(/C(C#N)=C/c2ccccc2OCCN(CC)CC)cc1
  EC50: > 200 µM
  IC50: 2.63 µM

## N#Cc1c(N)[nH]c2ccc(Sc3ccccc3)cc12
  EC50: > 70.8 µM
  IC50: 0.0832 µM

## O=c1cc(-c2ccccc2)oc2cc(OCCCOc3ccc4c(=O)cc(-c5ccccc5)oc4c3)ccc12
  EC50: > 3.89 µM
  IC50: > 3.89 µM

## O=C1NC(=S)SC1N=Nc1ccc(S(=O)(=O)Nc2ncccn2)cc1 (stereo unspecified)
  EC50: > 200 µM
  IC50: > 200 µM

## CC(=O)c1c2c(cc3c1CC1(Cc4cc5c(cc4C1)CCC5)C3)CCC2
  EC50: > 200 µM
  IC50: > 200 µM

## CCn1c(=O)nc2n(-c3ccccc3)c3ccccc3nc-2c1=O
  outcome: inactive

## CCc1cccc(CC)c1NC(=O)C1=C(C)NC(C)=C(C(=O)Nc2c(CC)cccc2CC)C1c1ccc([N+](=O)[O-])cc1
  EC50: > 44.7 µM
  IC50: > 44.7 µM

## N#CC(c1ccccc1)N(CCc1ccccc1)C(=O)c1ccc(C(=O)N(CCc2ccccc2)C(C#N)c2ccccc2)cc1 (stereo unspecified)
  EC50: > 200 µM
  IC50: 28.2 µM

## Cc1ccc(S(=O)(=O)N2CCC(C(=O)O)(c3ccccc3)CC2)cc1
  EC50: > 182 µM
  IC50: > 182 µM

## COC(=O)/C=C1\C(CO[Si](C)(C)C(C)(C)C)OC(n2cc(C)c(=O)[nH]c2=O)C1O[Si](C)(C)C(C)(C)C (stereo unspecified)
  EC50: > 200 µM
  IC50: 7.08 µM

## CC(C)=CCN(N=O)c1ncnc2nc[nH]c12
  EC50: > 200 µM
  IC50: > 200 µM

## O=C(/C=C/c1ccc(O)c(O)c1)OC1C[C@@](O)(C(=O)O)C[C@@H](O)[C@H]1OC(=O)/C=C/c1ccc(O)c(O)c1 (stereo partly specified)
  EC50: > 347 µM
  IC50: 155 µM

## C=C(CC(=O)Nc1ccc(C(=O)OC)o1)C(=O)OC
  EC50: > 200 µM
  IC50: 3.89 µM

## COc1ccc2c(c1)CCC1=C2CC(=O)N2CCCCN12
  EC50: > 91.2 µM
  IC50: > 91.2 µM

## S=C(Nc1ccc(Br)cn1)Nc1ccccc1-c1ccccc1
  EC50: > 2 µM
  IC50: 0.389 µM

## O=c1/c(=C\C=C\c2ccccc2)sc2n1CCN=2
  outcome: inactive

## COc1cc(/C=N/N=C(\N)NO)cc(OC)c1OC
  EC50: > 200 µM
  IC50: 105 µM

## N#C/C=C\c1ccc(F)cc1
  EC50: > 245 µM
  IC50: > 245 µM

## CN(C)CCNC(=O)C(C)(C)Oc1ccc(C(=O)c2ccc(Cl)cc2)cc1Cl
  EC50: > 200 µM
  IC50: 9.55 µM

## CC(=O)OCCC(O[Si](c1ccccc1)(c1ccccc1)C(C)(C)C)C(C)(C)O (stereo unspecified)
  outcome: inactive

## COc1cccc(C2c3cc4c(cc3OC(Nc3ccccc3)C2C)OCO4)c1O (stereo unspecified)
  EC50: > 200 µM
  IC50: 3.55 µM

## Cn1c(=O)nc2n(-c3cc(Cl)ccc3Cl)c3ccccc3nc-2c1=O
  outcome: inactive

## Nc1nc(N)c(CCCc2ccccc2)c(N)n1
  outcome: inactive

## COC1/C=C/OC2(C)Oc3c(C)c(O)c4c(O)c(c(/C=N/N5CCN(Cc6cccc(C(F)(F)F)c6)CC5)c(O)c4c3C2=O)NC(=O)C(C)=C/C=C/C(C)C(O)C(C)C(O)C(C)C(OC(C)=O)C1C (stereo unspecified)
  EC50: > 200 µM
  IC50: 6.92 µM

## COc1ccc(N(C(=O)Nc2ccc(Cl)c(Cl)c2)c2ccccc2)cc1
  EC50: > 200 µM
  IC50: 126 µM

## O=C(/C=C/c1ccco1)N1CCN(Cc2ccccc2)CC1
  EC50: > 282 µM
  IC50: 263 µM

## Cc1ccn2c(c1)nc1nc3ccccc3nc12
  EC50: > 214 µM
  IC50: 110 µM

## CN(C)CCCN1C(=O)N(CCCN(C)C)c2c3cc(O)ccc3nc3c([N+](=O)[O-])ccc1c23
  EC50: > 200 µM
  IC50: 0.977 µM

## c1ccc(CN(Cc2ccccn2)Cc2ccccn2)nc1
  EC50: > 200 µM
  IC50: 3.16 µM

## CC(=O)OC12c3ccccc3C(c3ccccc31)C1C(=O)N(N=C(C)C)C(=O)C12 (stereo unspecified)
  EC50: > 200 µM
  IC50: > 200 µM

## O=C1OC(=O)C23CSCC12C1C=CC3O1 (stereo unspecified)
  EC50: > 417 µM
  IC50: > 417 µM

## C#C[C@H]1CCCCCC1O (stereo partly specified)
  EC50: > 1820 µM
  IC50: 1230 µM

## COC(=O)/C=C/CC(=O)NS(C)(=O)=O
  EC50: > 200 µM
  IC50: > 200 µM

## COc1ccccc1C1c2cc3c(cc2OC(N2CCOCC2)C1C)OCO3 (stereo unspecified)
  EC50: > 200 µM
  IC50: 15.8 µM

## NC(N)=NS(=O)(=O)c1ccc(NC(=O)c2cccc3c(NNc4ccc(C(=O)O)cc4)c4ccccc4nc23)cc1
  EC50: > 200 µM
  IC50: 33.9 µM

## CN(Cc1cnc2nc(N)nc(N)c2n1)c1ccc(C(=O)NC(CCC(=O)NCCC(P(=O)(O)O)P(=O)(O)O)C(=O)O)cc1 (stereo unspecified)
  EC50: > 200 µM
  IC50: 3.63 µM

## Cn1cc(NC(=O)Nc2cc(C(=O)Nc3cc(C(=O)Nc4ccc(S(=O)(=O)O)c5cc(S(=O)(=O)O)ccc45)n(C)c3)n(C)c2)cc1C(=O)Nc1cc(C(=O)Nc2ccc(S(=O)(=O)O)c3cc(S(=O)(=O)O)ccc23)n(C)c1
  EC50: 12.3 µM
  IC50: 61.7 µM

## CC(=C(c1ccccc1)c1ccccc1)N1C(=O)CC(=O)N1C
  EC50: > 200 µM
  IC50: 120 µM

## N#CC12C(=O)NC(=O)C1(C#N)C2c1ccccc1 (stereo unspecified)
  EC50: > 501 µM
  IC50: > 501 µM

## COC(=O)/C(=C/c1ccc(OC)cc1)C(C(=O)O)=C(C)C
  EC50: > 871 µM
  IC50: 11.2 µM

## COc1ccc(C23CCC(=O)N2CCS3)cc1 (stereo unspecified)
  outcome: inactive

## NNC(=O)/C(=C/c1ccc(Cl)cc1Cl)NC(=O)c1ccccc1
  EC50: > 135 µM
  IC50: 110 µM

## CCCOC(=O)C(F)C(Br)C(=O)OCCC (stereo unspecified)
  EC50: > 200 µM
  IC50: 3.16 µM

## CCOC(=O)C1=CNC(C(=O)OCC)C1c1cccn1-c1ccccc1 (stereo unspecified)
  EC50: > 200 µM
  IC50: 36.3 µM

## CCC1(CC=C(C)C)Oc2cccnc2-n2cccc2C1=O (stereo unspecified)
  EC50: > 200 µM
  IC50: 117 µM

## CC(C)(C)c1cc(N=O)cc(C(C)(C)C)c1O
  EC50: > 200 µM
  IC50: 18.6 µM

## COc1cc2c3c(c1)ncn3C(=O)CS2
  EC50: > 200 µM
  IC50: > 100 µM

## CCOC(=O)C1=C(OC(OCC)C([Se]c2ccccc2)C(C)C)CCC1 (stereo unspecified)
  EC50: > 23.4 µM
  IC50: > 23.4 µM

## CCOC(=O)c1cc2c(nc1N)C(=O)CCCC2
  EC50: > 200 µM
  IC50: 148 µM

## Cc1ccc(C)n1-c1ccccc1C1C=Cn2c(=O)oc3c(OC(C)C)c(OC(C)C)c(O)c1c32 (stereo unspecified)
  EC50: > 200 µM
  IC50: 16.2 µM

## C=CCc1cc(OC)c2c(c1)C(OC)CC(c1ccc(OC)c(OC)c1)O2 (stereo unspecified)
  EC50: > 251 µM
  IC50: > 251 µM

## CC1(C)CC2(C)CC1CC2NC(=O)CCN1CCOCC1 (stereo unspecified)
  EC50: > 851 µM
  IC50: 676 µM

## COc1cccc(C(NC2=NCCC=N2)c2cc3c(cc2O)OCO3)c1O (stereo unspecified)
  EC50: > 200 µM
  IC50: 35.5 µM

## NC1=NN(c2ccccc2)C2(c3ccncc3C(=O)O)C1C(N)=NN2c1ccccc1 (stereo unspecified)
  EC50: > 200 µM
  IC50: > 200 µM

## C=CCNC(=O)N(CCC)CCCC(NC(C)=O)C(=O)NCc1ccccc1 (stereo unspecified)
  EC50: > 646 µM
  IC50: > 646 µM

## C=CCN(CC=C)CC(C(C)=O)C(c1ccccc1)c1c(O)c2ccccc2oc1=O (stereo unspecified)
  EC50: > 1.15 µM
  IC50: > 1.15 µM

## Cc1ccc(S(=O)(=O)Nc2ccccc2C(C)(C)C)cc1
  outcome: inactive

## NC1=NN(c2ccc(Br)cc2)C2C=CC=CN12 (stereo unspecified)
  EC50: > 200 µM
  IC50: 151 µM

## CN1c2ccccc2Sc2c1n[nH]c2-c1ccccc1
  EC50: > 49 µM
  IC50: 20.9 µM

## CN(C)CCc1c2c(nc3ccccc13)C(=O)c1cccnc1C2=O
  outcome: inactive

## Cc1cc(C)c(C)c(-n2[nH]c(=O)n(C)c2=O)c1C
  EC50: > 200 µM
  IC50: > 200 µM

## O=C1C=CC[C@H]2O[C@@H](COC(=O)Cc3ccccc3)C[C@H]2O1
  EC50: > 200 µM
  IC50: 34.7 µM

## COc1ccccc1C1SCc2nc3ccccc3n21 (stereo unspecified)
  EC50: > 91.2 µM
  IC50: 36.3 µM

## N[C@@H]1c2c(I)sc(I)c2C(=O)[C@@H]1O
  EC50: > 200 µM
  IC50: 5.25 µM

## CCCCCCCCCCCCCCCc1nc(SCC(=O)O)n[nH]1
  EC50: > 3.89 µM
  IC50: > 3.89 µM

## CN(CCc1ccccn1)/[N+]([O-])=N/O (tested in a mixture with another compound)
  EC50: > 4680 µM
  IC50: 3470 µM

## CC(C)CCCC(C)[C@H]1CCC2C3CCC4C[C@@H](CCC=C(c5cc(Cl)c(OCc6ccc([N+](=O)[O-])cc6)c(C(=O)O)c5)c5cc(Cl)c(OCc6ccc([N+](=O)[O-])cc6)c(C(=O)O)c5)CC[C@]4(C)C3CC[C@@]21C (stereo partly specified)
  EC50: 115 µM
  IC50: > 200 µM

## c1ccc(Cc2nc(Cc3n[nH]c(Cc4ccccc4)n3)n[nH]2)cc1
  EC50: > 200 µM
  IC50: > 200 µM

## COC(=O)C(Cc1ccccc1)NC(=O)CCCNC(=O)OCc1ccccc1 (stereo unspecified)
  EC50: > 200 µM
  IC50: 87.1 µM

## CCC(=O)C(C(C)/C=C/CCSc1ccccc1)C(O)CCCCCC(=O)OC (stereo unspecified)
  EC50: > 200 µM
  IC50: 36.3 µM
